Measured values taken from article PMC4319572 (Structure (London, England : 1993), 2015).
Substitutions are numbered along the chain they refer to.

T1: Rgd1p F-BAR domain (residues 1-324) (Saccharomyces cerevisiae, UniProt P38339, R141D/K145E)
T1 sequence (P38339 1-324 R141D/K145E): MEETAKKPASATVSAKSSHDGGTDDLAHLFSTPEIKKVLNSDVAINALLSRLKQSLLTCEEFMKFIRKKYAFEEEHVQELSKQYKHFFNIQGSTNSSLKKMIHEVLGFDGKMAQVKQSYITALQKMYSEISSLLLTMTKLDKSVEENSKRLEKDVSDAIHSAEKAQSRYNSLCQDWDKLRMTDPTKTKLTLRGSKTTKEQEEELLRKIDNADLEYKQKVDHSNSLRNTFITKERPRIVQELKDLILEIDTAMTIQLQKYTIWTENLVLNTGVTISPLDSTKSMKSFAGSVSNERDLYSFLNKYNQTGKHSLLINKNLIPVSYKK

T2: Rgd1p F-BAR domain (residues 1-324) (Saccharomyces cerevisiae, UniProt P38339, R141D)
T2 sequence (P38339 1-324 R141D): T1 sequence (P38339 1-324 R141D/K145E) with E145K

T3: Rgd1p F-BAR domain (residues 1-324) (Saccharomyces cerevisiae, UniProt P38339, R141D/K142E)
T3 sequence (P38339 1-324 R141D/K142E): T1 sequence (P38339 1-324 R141D/K145E) with K142E, E145K

T4: Rgd1p F-BAR domain (residues 1-324) (Saccharomyces cerevisiae, UniProt P38339, K149E/K153E)
T4 sequence (P38339 1-324 K149E/K153E): T1 sequence (P38339 1-324 R141D/K145E) with D141R, E145K, K149E, K153E

T5: Rgd1p F-BAR domain (residues 1-324) (Saccharomyces cerevisiae, UniProt P38339)
T5 sequence (P38339 1-324): T1 sequence (P38339 1-324 R141D/K145E) with D141R, E145K

B1: Rgd1p F-BAR domain (residues 24-333) (domain or fragment, S. cerevisiae, UniProt P38339 24-333, looked up)
chain: DDLAHLFSTPEIKKVLNSDVAINALLSRLKQSLLTCEEFMKFIRKKYAFEEEHVQELSKQYKHFFNIQGSTNSSLKKMIHEVLGFDGKMAQVKQSYITALQKMYSEISSLLLTMTKLRKSVKENSKRLEKDVSDAIHSAEKAQSRYNSLCQDWDKLRMTDPTKTKLTLRGSKTTKEQEEELLRKIDNADLEYKQKVDHSNSLRNTFITKERPRIVQELKDLILEIDTAMTIQLQKYTIWTENLVLNTGVTISPLDSTKSMKSFAGSVSNERDLYSFLNKYNQTGKHSLLINKNLIPVSYKKHPSMNHGQK
B2: Hof1p F-BAR domain (residues 1-300) (domain or fragment, S. cerevisiae, UniProt Q05080 1-300, looked up)
chain: MSYSYEACFWDPNDNGVNILLGHISQGIRSCDSMILFFKQRSELEKDYARRLGAITGKLDKDIGTNMDYGKLNETFNVVLSVEKARAQSHSKQSEILFRQIYTDTKAFAANLQARYTTLSGKIERLRMDKFNKKKGCEVLQKKLQDAQIRFRDLQLNENNMIGAKRVEHNKRELLKWESNSQEYKVQLDVLKQEYKASQKFWIHEWAQLSCELQEMENARISFLQSKLQQFATSSMETYILEQTKMDMLTNHLNSFTAADEISTFSKENGTGRLKHKTSKGDMNSSANWAQMSSISTTSK
modifications: selenomethionine (SeMet) in the protein used for the crystals

Experiments:
[1] = molecular target: T1, Rgd1p F-BAR domain (residues 1-324); experiment: surface plasmon resonance; assay type: binding; conditions: 30 μM protein over 10% (mole/mole) PtdIns(4,5)P2 in DOPC
[2] = molecular target: T2, Rgd1p F-BAR domain (residues 1-324); experiment: surface plasmon resonance; assay type: binding; conditions: 30 μM protein over 10% (mole/mole) PtdIns(4,5)P2 in DOPC
[3] = molecular target: T3, Rgd1p F-BAR domain (residues 1-324); experiment: surface plasmon resonance; assay type: binding; conditions: 30 μM protein over 10% (mole/mole) PtdIns(4,5)P2 in DOPC
[4] = molecular target: T4, Rgd1p F-BAR domain (residues 1-324); experiment: surface plasmon resonance; assay type: binding; conditions: 30 μM protein over 10% (mole/mole) PtdIns(4,5)P2 in DOPC
[5] = molecular target: T5, Rgd1p F-BAR domain (residues 1-324); experiment: competition off PtdIns; assay type: binding; conditions: membranes with 10% (mole/mole) PtdIns(4,5)P2; competitive
crystal structure = molecular target: the molecule itself; experiment: crystal structure
AUC = molecular target: the molecule itself; experiment: AUC

Row | Molecule | competition [5] | stoichiometry N (crystal structure) | further results
1 | CCCCCCCC/C=C\CCCCCCCC(=O)OC[C@H](COP(=O)(O)O[C@@H]1[C@H](O)[C@H](O)[C@@H](OP(=O)(O)O)[C@H](OP(=O)(O)O)[C@H]1O)OC(=O)CCCCCCC/C=C\CCCCCCCC [dioleoyl-PtdIns(4,5)P2] | – | – | binding relative to wild type [1]: as seen for R141D/K142E and R141D/K145E doubly-mutated variants; % reduction of binding vs wild type at 30 μM protein [2]: > 75%; binding relative to wild type [3]: as seen for R141D/K142E and R141D/K145E doubly-mutated variants; binding relative to wild type [4]: Glutamate substitutions at K149 and K153
2 | O=P(O)(O)O[C@H]1[C@H](O)[C@@H](O)[C@H](OP(=O)(O)O)[C@@H](OP(=O)(O)O)[C@H]1O [isolated headgroup of PtdIns(3,4)P2] | isolated headgroups of these three phosphoinositides were equally potent in their ability to compete | – | –
3 | O=P(O)(O)O[C@H]1[C@H](O)[C@@H](OP(=O)(O)O)[C@H](O)[C@@H](OP(=O)(O)O)[C@H]1O [isolated headgroup of PtdIns(3,5)P2] | isolated headgroups of these three phosphoinositides were equally potent in their ability to compete | – | –
4 | O=P(O)(O)O[C@@H]1[C@H](O)[C@H](O)[C@@H](OP(=O)(O)O)[C@H](OP(=O)(O)O)[C@H]1O [isolated headgroup of PtdIns(4,5)P2] | isolated headgroups of these three phosphoinositides were equally potent in their ability to compete | – | –
5 | B1 | – | 2 | –
6 | B2 | – | 2 | Kd (AUC): ~3000 nM
